Results from US20260224588A1, “BENZODIAZEPINONE-DERIVED INHIBITORS OF EGFR AND HER2” (The Research Foundation for the State University of New York, priority 2023, published 2026).

Key:
Assay in all cases: KINOMEscan
Assay type in all cases: binding
Settings in all cases: 1 μM of compound 4; read-out: POC
CDC2L1 = CDC2L1 (Homo sapiens, UniProt P21127)
DCAMKL1 = DCAMKL1 (Homo sapiens, UniProt O15075)
[1] = target: T1, ABL1(F317L)-phosphorylated (Homo sapiens, UniProt P00519, F317L)
T1 construct: purchased Eurofins DiscoverX Corporation

[2] = target: T2, ABL1(F317I)-phosphorylated (Homo sapiens, UniProt P00519, F317I)
T2 construct: purchased Eurofins DiscoverX Corporation

PIP5K2C = PIP5K2C (Homo sapiens, UniProt Q8TBX8)
YANK3 = target: T3, YANK3 (Homo sapiens, UniProt Q86UX6)
T3 construct: purchased Eurofins DiscoverX

GAK = target: T4, GAK (Homo sapiens, UniProt O14976)
T4 construct: purchased Eurofins DiscoverX Corporation

TRKA = target: T5, TRKA (Homo sapiens, UniProt P04629)
T5 construct: purchased Eurofins DiscoverX Corporation
T5 sequence (P04629 33-796): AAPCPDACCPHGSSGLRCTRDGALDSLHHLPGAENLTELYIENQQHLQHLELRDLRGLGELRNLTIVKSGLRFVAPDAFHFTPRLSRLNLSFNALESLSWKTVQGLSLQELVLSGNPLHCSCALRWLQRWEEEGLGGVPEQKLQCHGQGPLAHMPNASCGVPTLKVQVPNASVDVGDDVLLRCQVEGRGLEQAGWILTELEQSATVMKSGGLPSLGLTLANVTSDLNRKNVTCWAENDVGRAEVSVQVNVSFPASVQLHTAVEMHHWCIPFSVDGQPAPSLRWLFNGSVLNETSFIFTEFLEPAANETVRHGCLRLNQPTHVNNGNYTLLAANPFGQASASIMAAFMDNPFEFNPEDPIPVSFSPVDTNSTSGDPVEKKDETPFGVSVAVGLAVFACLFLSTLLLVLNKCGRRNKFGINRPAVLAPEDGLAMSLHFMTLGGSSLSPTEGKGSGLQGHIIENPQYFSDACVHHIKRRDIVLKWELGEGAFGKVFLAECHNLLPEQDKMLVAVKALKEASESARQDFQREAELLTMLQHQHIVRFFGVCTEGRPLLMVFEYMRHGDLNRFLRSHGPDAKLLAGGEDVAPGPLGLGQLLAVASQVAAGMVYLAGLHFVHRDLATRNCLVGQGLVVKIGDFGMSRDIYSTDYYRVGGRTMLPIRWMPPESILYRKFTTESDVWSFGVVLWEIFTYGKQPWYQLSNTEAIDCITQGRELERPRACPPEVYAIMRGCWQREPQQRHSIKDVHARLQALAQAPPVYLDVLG

MAPKAPK2 = MAPKAPK2 (Homo sapiens, UniProt P49137)
MAPKAPK2, sequence (P49137 whole entry): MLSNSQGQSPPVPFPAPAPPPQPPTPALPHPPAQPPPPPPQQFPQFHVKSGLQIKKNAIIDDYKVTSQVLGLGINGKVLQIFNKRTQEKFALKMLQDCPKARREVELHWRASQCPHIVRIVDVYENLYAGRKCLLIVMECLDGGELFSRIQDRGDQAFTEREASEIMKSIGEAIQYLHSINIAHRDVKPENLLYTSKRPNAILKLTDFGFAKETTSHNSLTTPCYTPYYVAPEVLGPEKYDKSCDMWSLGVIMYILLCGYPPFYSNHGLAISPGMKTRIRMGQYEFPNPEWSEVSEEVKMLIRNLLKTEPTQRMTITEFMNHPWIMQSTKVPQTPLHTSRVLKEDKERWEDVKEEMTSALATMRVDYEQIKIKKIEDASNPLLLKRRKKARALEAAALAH

FGFR3 = target: T6, FGFR3 (Homo sapiens, UniProt P22607)
T6 construct: purchased Eurofins DiscoverX Corporation

GRK2 = target: T7, GRK2 (Homo sapiens, UniProt P25098)
T7 construct: purchased Eurofins DiscoverX Corporation

p38-delta = target: T8, p38-delta (Homo sapiens, UniProt O15264)
T8 construct: purchased Eurofins DiscoverX Corporation (KINOMEscan)

p38-gamma = target: T9, p38-gamma (Homo sapiens, UniProt P53778)
T9 construct: purchased Eurofins DiscoverX Corporation (KINOMEscan)

FLT3-autoinhibited = target: T10, FLT3-autoinhibited (Homo sapiens, UniProt P36888)
T10 construct: purchased Eurofins DiscoverX Corporation

ERK2 = target: T11, ERK2 (Homo sapiens, UniProt P28482)
T11 construct: purchased Eurofins DiscoverX Corporation

FLT3(K663Q) = target: T12, FLT3(K663Q) (Homo sapiens, UniProt P36888, K663Q)
T12 construct: purchased Eurofins DiscoverX Corporation

ITK = ITK (Homo sapiens, UniProt Q08881)
ERBB3 = target: T13, ERBB3 (Homo sapiens, UniProt P21860)
T13 construct: purchased Eurofins DiscoverX Corporation

KIT(V559D) = KIT(V559D) (Homo sapiens, UniProt P10721, V559D)
KIT(V559D), sequence (P10721 26-976 V559D): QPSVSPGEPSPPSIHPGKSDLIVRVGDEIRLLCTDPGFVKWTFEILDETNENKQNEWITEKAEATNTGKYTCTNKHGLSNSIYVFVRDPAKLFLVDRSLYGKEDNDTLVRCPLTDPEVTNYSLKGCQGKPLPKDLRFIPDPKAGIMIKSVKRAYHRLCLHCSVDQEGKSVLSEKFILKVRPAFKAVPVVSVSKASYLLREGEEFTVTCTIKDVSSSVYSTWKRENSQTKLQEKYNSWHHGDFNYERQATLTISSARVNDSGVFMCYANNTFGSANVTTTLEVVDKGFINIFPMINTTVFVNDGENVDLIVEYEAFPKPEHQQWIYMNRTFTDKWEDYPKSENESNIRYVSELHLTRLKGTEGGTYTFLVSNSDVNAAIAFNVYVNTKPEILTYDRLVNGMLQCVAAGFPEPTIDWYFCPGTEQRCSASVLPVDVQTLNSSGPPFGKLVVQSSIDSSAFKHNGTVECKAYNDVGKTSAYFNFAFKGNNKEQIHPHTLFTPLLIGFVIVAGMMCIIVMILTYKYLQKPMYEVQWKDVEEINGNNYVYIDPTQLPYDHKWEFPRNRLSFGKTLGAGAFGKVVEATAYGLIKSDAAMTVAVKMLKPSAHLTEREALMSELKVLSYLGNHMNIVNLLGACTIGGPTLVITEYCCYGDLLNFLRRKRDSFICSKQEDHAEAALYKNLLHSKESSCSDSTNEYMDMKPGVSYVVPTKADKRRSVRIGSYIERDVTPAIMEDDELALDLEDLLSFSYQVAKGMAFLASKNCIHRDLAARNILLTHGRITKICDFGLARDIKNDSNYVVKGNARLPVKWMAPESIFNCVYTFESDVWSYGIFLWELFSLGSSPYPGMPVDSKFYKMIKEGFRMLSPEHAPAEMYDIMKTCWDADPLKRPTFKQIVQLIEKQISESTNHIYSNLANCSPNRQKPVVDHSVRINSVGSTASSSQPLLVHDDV

KIT(D816V) = KIT(D816V) (Homo sapiens, UniProt P10721, D816V)
KIT(D816V), sequence (P10721 26-976 D816V): as the sequence (P10721 26-976 V559D) above, with D534V, D791V counted along it

WNK4 = target: T14, WNK4 (Homo sapiens, UniProt Q96J92)
T14 construct: purchased Eurofins DiscoverX

EPHA5 = target: T15, EPHA5 (Homo sapiens, UniProt P54756)
T15 construct: purchased Eurofins DiscoverX (KINOMEscan service)

MEK4 = MEK4 (Homo sapiens, UniProt P45985)
MEK4, sequence (P45985 whole entry): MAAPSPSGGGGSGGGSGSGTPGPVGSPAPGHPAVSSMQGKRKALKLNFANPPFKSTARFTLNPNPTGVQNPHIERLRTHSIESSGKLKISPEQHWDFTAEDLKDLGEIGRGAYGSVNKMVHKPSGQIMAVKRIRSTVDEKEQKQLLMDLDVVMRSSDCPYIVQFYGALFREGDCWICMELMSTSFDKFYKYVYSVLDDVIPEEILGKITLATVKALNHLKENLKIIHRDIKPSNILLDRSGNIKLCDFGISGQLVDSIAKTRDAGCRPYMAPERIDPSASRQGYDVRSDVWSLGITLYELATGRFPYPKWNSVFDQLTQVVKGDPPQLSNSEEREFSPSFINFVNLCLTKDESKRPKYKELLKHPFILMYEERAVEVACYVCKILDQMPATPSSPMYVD

[3] = target: T16, ABL1(T315I)-nonphosphorylated (Homo sapiens, UniProt P00519, T315I)
T16 construct: purchased Eurofins DiscoverX Corporation

PIP5K1A = PIP5K1A (Homo sapiens, UniProt Q99755)
JNK2 = JNK2 (Homo sapiens, UniProt P45984)
KIT-autoinhibited = KIT-autoinhibited (Homo sapiens, UniProt P10721)
DAPK2 = DAPK2 (Homo sapiens, UniProt Q9UIK4)
FGR = target: T17, FGR (Homo sapiens, UniProt P09769)
T17 construct: purchased Eurofins DiscoverX Corporation

SIK = target: T18, SIK (Homo sapiens, UniProt P57059)
T18 construct: purchased Eurofins DiscoverX (KINOMEscan service)

[4] = target: T19, RSK3(Kin.Dom.1-N-terminal) (Homo sapiens, UniProt Q15349)
T19 construct: RSK3(Kin.Dom.1-N-terminal); purchased Eurofins DiscoverX (KINOMEscan service)
T19 sequence (Q15349 59-318 limits assumed): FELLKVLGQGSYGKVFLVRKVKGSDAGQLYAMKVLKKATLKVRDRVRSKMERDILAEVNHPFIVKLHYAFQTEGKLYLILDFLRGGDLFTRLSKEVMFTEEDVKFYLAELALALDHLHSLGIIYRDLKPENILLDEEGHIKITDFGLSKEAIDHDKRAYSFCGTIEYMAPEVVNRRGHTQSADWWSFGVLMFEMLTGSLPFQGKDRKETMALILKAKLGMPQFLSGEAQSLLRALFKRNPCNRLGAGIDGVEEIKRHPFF

EPHA4 = target: T20, EPHA4 (Homo sapiens, UniProt P54764)
T20 construct: purchased Eurofins DiscoverX (KINOMEscan service)

EPHA7 = target: T21, EPHA7 (Homo sapiens, UniProt Q15375)
T21 construct: purchased Eurofins DiscoverX (KINOMEscan service)

p38-alpha = target: T22, p38-alpha (Homo sapiens, UniProt Q16539)
T22 construct: purchased Eurofins DiscoverX Corporation (KINOMEscan)

CLK2 = CLK2 (Homo sapiens, UniProt P49760)
MAP4K5 = MAP4K5 (Homo sapiens, UniProt Q9Y4K4)
PIKFYVE = PIKFYVE (Homo sapiens, UniProt Q9Y2I7)
PIKFYVE, sequence (Q9Y2I7 whole entry): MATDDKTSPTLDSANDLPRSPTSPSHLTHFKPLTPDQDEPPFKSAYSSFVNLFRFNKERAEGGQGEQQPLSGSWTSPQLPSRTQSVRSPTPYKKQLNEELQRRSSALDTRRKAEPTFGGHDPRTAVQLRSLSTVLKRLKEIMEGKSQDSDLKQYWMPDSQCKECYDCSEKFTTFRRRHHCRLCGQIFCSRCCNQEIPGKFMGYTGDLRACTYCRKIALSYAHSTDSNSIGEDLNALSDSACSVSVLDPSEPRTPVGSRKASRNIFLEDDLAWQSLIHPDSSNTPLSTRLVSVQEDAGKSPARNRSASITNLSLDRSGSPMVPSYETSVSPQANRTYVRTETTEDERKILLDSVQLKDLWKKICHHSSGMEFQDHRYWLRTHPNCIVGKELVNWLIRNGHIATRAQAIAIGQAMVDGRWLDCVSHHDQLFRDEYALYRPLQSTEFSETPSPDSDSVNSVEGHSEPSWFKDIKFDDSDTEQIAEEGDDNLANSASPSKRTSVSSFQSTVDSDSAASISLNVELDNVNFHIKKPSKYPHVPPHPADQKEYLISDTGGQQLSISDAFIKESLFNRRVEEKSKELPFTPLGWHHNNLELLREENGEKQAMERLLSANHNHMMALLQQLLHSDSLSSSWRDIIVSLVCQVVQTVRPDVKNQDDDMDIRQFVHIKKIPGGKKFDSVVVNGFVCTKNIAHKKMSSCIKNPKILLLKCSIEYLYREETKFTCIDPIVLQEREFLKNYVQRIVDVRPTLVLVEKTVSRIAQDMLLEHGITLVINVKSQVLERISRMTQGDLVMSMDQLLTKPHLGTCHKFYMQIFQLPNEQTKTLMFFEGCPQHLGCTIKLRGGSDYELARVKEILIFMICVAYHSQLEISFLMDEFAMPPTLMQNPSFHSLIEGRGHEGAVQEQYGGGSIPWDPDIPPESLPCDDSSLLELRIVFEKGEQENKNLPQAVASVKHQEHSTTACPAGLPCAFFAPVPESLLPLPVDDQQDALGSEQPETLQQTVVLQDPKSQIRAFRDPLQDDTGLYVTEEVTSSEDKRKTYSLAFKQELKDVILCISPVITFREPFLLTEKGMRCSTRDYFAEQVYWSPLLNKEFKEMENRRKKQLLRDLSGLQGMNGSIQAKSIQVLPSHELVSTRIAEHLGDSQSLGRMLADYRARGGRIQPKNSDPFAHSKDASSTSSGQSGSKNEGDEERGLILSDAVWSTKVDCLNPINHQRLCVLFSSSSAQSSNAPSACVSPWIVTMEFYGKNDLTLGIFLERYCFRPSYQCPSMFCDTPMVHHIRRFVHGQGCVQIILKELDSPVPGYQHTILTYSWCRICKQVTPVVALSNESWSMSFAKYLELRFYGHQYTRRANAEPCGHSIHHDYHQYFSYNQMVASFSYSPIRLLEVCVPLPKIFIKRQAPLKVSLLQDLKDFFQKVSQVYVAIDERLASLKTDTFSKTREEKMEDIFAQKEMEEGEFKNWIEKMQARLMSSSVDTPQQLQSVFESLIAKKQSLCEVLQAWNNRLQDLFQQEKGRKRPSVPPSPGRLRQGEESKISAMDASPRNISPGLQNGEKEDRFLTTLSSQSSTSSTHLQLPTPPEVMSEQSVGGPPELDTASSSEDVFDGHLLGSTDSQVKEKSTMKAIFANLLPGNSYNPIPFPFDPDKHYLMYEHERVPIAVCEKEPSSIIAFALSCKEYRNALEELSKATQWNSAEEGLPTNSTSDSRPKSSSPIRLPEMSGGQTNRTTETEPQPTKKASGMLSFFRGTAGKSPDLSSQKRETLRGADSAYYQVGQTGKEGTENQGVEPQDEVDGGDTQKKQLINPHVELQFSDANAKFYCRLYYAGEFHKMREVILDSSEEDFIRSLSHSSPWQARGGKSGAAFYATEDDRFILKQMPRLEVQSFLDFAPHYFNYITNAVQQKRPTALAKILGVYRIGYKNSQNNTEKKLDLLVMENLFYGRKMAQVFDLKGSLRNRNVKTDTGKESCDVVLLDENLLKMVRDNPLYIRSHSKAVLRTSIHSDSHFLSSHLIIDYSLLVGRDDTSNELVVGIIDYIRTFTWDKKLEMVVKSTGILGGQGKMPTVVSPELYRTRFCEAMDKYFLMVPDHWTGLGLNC

EPHB3 = target: T23, EPHB3 (Homo sapiens, UniProt P54753)
T23 construct: purchased Eurofins DiscoverX (KINOMEscan service)

EIF2AK1 = target: T24, EIF2AK1 (Homo sapiens, UniProt Q9BQI3)
T24 construct: purchased Eurofins DiscoverX (KINOMEscan service)

Compound: C=CC(=O)Nc1ccc(OC)c(Nc2cc(-c3[nH]c(CC)nc3-c3cccc(NC(=O)c4cccc5c4NC(=O)c4ccccc4N5)c3)ccn2)c1 [Compound 4, N-(3-(5-(2-((5-Acrylamido-2-methoxyphenyl)amino)pyridin-4-yl)-2-ethyl-1H-imidazol-4-yl)phenyl)-11-oxo-10,11-dihydro-5H-dibenzo[b,e][1,4]diazepine-9-carboxamide]
- remaining binding at 1 µM (CDC2L1): 100%
- remaining binding at 1 µM (DCAMKL1): 100%
- remaining binding at 1 µM [1]: 85%
- remaining binding at 1 µM [2]: 84%
- remaining binding at 1 µM (PIP5K2C): 66%
- remaining binding at 1 µM (YANK3): 96%
- remaining binding at 1 µM (GAK): 16%
- remaining binding at 1 µM (TRKA): 77%
- remaining binding at 1 µM (MAPKAPK2): 100%
- remaining binding at 1 µM (FGFR3): 94%
- remaining binding at 1 µM (GRK2): 100%
- remaining binding at 1 µM (p38-delta): 100%
- remaining binding at 1 µM (p38-gamma): 100%
- remaining binding at 1 µM (FLT3-autoinhibited): 100%
- remaining binding at 1 µM (ERK2): 100%
- remaining binding at 1 µM (FLT3(K663Q)): 87%
- remaining binding at 1 µM (ITK): 87%
- remaining binding at 1 µM (ERBB3): 84%
- remaining binding at 1 µM (KIT(V559D)): 100%
- remaining binding at 1 µM (KIT(D816V)): 94%
- remaining binding at 1 µM (WNK4): 85%
- remaining binding at 1 µM (EPHA5): 100%
- remaining binding at 1 µM (MEK4): 100%
- remaining binding at 1 µM [3]: 98%
- remaining binding at 1 µM (PIP5K1A): 75%
- remaining binding at 1 µM (JNK2): 78%
- remaining binding at 1 µM (KIT-autoinhibited): 100%
- remaining binding at 1 µM (DAPK2): 100%
- remaining binding at 1 µM (FGR): 19%
- remaining binding at 1 µM (SIK): 100%
- remaining binding at 1 µM [4]: 97%
- remaining binding at 1 µM (EPHA4): 95%
- remaining binding at 1 µM (EPHA7): 100%
- remaining binding at 1 µM (p38-alpha): 46%
- remaining binding at 1 µM (CLK2): 63%
- remaining binding at 1 µM (MAP4K5): 2.5%
- remaining binding at 1 µM (PIKFYVE): 94%
- remaining binding at 1 µM (EPHB3): 100%
- remaining binding at 1 µM (EIF2AK1): 75%
